Among the data in patent US11708367B2, “Compounds for the treatment of kinase-dependent disorders” (Exelixis, Inc., priority 2018, dated 2023) are IC50 values, retold here.

Holding throughout (type): biochemical
One test has as its target Mer (Homo sapiens (Human), UniProt Q12866). Description: Human Mer kinase assay (33P radiometric, KinaseProfiler). The settings on record: 10 μM ATP. As for the experimental part:
(§1) Kinase activity and compound inhibition were investigated using the ^33P-Phosphoryl transfer radiometric kinase assay, performed using the KinaseProfiler™ service of Eurofins Pharma Discovery Services UK Limited. Dose-response experiments were performed using nine compound concentrations in a 96-well microtiter plate. For each assay, all compounds were prepared to a 50× final assay concentration (50 μM) in 100% DMSO, then diluted in a half-log series, with the final top concentration at 1 μM. This working stock of the compound was added to the assay well as the first component in the reaction, followed by the remaining components as detailed in the following assay protocols below. The positive control wells (100% kinase activity) contain all components of the reaction including 2% DMSO (control for solvent effects), except the compound of interest. Blank wells contain all components of the reaction, with the reference inhibitor, staurosporine. This reference compound was used to abolish kinase activity and generated the 0% kinase activity base-line. IC50 values were calculated by nonlinear regression analysis using the sigmoidal dose-response (variable slope) curve fit on XLFit version 5.3 (ID Business Solutions).
Human Mer (residues R557-E882 with H628Q and R794A, 0.7 nM) was incubated with 8 mM MOPS pH 7.0, 0.2 mM EDTA, 30 mM NaCl, 250 μM GGMEDIYFEFMGGKKK (SEQ ID NO. 44), 10 mM magnesium acetate, and 10 μM [γ-33P-ATP]. The reaction was initiated by the addition of the Mg/ATP mix. After incubation for 40 minutes at room temperature, the reaction was stopped by the addition of phosphoric acid to a concentration of 0.5%. A reaction aliquot of 10 μL was then spotted onto a P30 filtermat and washed four times for 4 minutes in 0.425% phosphoric acid and once in methanol prior to drying and scintillation counting. Incorporated 33P was measured using the Wallac Microbeta scintillation counter (Perkin Elmer).

The next test deals with Met (Homo sapiens (Human), UniProt P08581). Description: Human Met kinase assay (33P radiometric, KinaseProfiler). The settings on record: 10 μM ATP, read-out: c-Met IC50. The protocol:
as §1
Human Met (residues R974-S1390 with A1209G and V1290L, 3.4 nM) was incubated with 8 mM MOPS pH 7.0, 0.2 mM EDTA, 250 µM KKKGQEEEYVFIE (SEQ ID NO. 45), 1 mM sodium orthovanadate, 5 mM […], 10 mM magnesium acetate, and 10 μM [γ-33P-ATP]. The reaction was initiated by the addition of the Mg/ATP mix. After incubation for 40 minutes at room temperature, the reaction was stopped by the addition of phosphoric acid to a concentration of 0.5%. A reaction aliquot of 10 μL was then spotted onto a P30 filtermat and washed four times for 4 minutes in 0.425% phosphoric acid and once in methanol prior to drying and scintillation counting. Incorporated 33P was measured using the Wallac Microbeta scintillation counter (Perkin Elmer).

The target of another test is Human Axl (Homo sapiens (Human), UniProt P30530, Q764R). In words: Human AXL kinase assay (33P radiometric, KinaseProfiler). The settings on record: 10 μM ATP. As for the experimental part:
as §1
Human Axl (residues H473-A894 with Q764R, 161 nM) was incubated with 8 mM MOPS pH 7.0, 0.2 mM EDTA, 250 μM KKSRGDYMTMQIG (SEQ ID NO. 43), 10 mM magnesium acetate and 10 μM [γ-33P-ATP]. The reaction was initiated by the addition of the Mg/ATP mix. After incubation for 40 minutes at room temperature, the reaction was stopped by the addition of phosphoric acid to a concentration of 0.5%. A reaction aliquot of 10 μL was then spotted onto a P30 filtermat and washed four times for 4 minutes in 0.425% phosphoric acid and once in methanol prior to drying and scintillation counting. Incorporated ^33P was measured using the Wallac Microbeta scintillation counter (Perkin Elmer).

A value given as a limit tells only on which side of the number the result lay.

Sequence of Mer (Q12866 557-882): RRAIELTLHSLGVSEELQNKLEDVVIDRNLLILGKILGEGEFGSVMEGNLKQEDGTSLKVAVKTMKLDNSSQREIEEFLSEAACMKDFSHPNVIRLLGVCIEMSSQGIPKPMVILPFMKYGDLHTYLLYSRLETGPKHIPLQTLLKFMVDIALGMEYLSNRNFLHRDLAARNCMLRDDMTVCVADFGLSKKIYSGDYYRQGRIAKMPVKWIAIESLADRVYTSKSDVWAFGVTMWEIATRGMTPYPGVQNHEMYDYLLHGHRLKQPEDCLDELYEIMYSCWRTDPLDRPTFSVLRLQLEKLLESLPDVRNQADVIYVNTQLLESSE
Sequence of Human Axl (P30530 473-894 Q764R): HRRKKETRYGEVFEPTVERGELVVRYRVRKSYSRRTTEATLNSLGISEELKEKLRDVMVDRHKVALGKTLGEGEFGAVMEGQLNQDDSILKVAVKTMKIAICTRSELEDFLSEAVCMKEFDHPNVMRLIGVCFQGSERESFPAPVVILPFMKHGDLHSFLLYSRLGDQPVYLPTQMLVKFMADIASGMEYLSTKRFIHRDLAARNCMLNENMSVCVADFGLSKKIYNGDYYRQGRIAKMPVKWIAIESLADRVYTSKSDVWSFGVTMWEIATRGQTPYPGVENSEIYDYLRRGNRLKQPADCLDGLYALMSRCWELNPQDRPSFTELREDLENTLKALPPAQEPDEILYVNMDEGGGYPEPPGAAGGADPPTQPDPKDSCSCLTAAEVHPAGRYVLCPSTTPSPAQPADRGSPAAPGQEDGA

As usually defined, the IC50 is the midpoint of a concentration-inhibition curve. As to `O=C(Nc1ccc(F)cc1)C1(C(=O)Nc2ccc(Oc3ncnc4cc(Cl)cnc34)cc2)CC1` [Compound 12, 1-N-[4-(7-chloropyrido[3,2-d]pyrimidin-4-yl)oxyphenyl]-1-N′-(4-fluorophenyl)cyclo-propane-1,1-dicarboxamide], the IC50 at Mer was 100 to 1000 nM; on Met, 100 to 1000 nM; on Human Axl it was over 1000 nM.

In the case of `O=C(Nc1ccc(F)cc1)C1(C(=O)Nc2ccc(Oc3ncnc4cc(Br)cnc34)cc2)CC1` [Compound 13, 1-N-[4-(7-bromopyrido[3,2-d]pyrimidin-4-yl)oxyphenyl]-1-N′-(4-fluorophenyl)cyclo-propane-1,1-dicarboxamide], the IC50 against Mer, on Met and against Human Axl was 100 to 1000 nM throughout.

`COc1cnc2c(Oc3ccc(NC(=O)C4(C(=O)Nc5ccc(F)cc5)CC4)cc3)ncnc2c1` [Compound 16, 1-N′-(4-fluorophenyl)-1-N-[4-(7-methoxy-pyrido[3,2-d]pyrimidin-4-yl)oxyphenyl]cyclo-propane-1,1-dicarboxamide]: the 50% inhibitory concentration (IC50) fell in the range of 100 to 1000 nM against Mer, 10 to 100 nM on Met and 100 to 1000 nM against Human Axl.

Regarding `Cc1cc2ncnc(Oc3ccc(NC(=O)C4(C(=O)Nc5ccc(F)cc5)CC4)cc3)c2nc1C` [Compound 43, 1-N-[4-(6,7-dimethyl-pyrido[3,2-d]pyrimidin-4-yl)oxyphenyl]-1-N′-(4-fluorophenyl)cyclo-propane-1,1-dicarboxamide], the IC50 on Mer, at Met and against Human Axl was 100 to 1000 nM in each case.

`O=C(Nc1ccc(F)cc1)C1(C(=O)Nc2ccc(Oc3ncnc4cc5c(nc34)CCCC5)cc2)CC1` [Compound 52, 1-N′-(4-fluorophenyl)-1-N-[4-(6,7,8,9-tetrahydro-pyrimido[5,4-b]quinolin-4-yloxy)phenyl]cyclo-propane-1,1-dicarboxamide]: the IC50 against Mer, at Met and on Human Axl was 100 to 1000 nM each time.

Consider `COc1cc2ncnc(Oc3ccc(NC(=O)C4(C(=O)Nc5ccc(F)cc5)CC4)cc3)c2nc1C#N` [Compound 57, 1-N-[4-(6-cyano-7-methoxypyrido[3,2-d]pyrimidin-4-yl)oxyphenyl]-1-N′-(4-fluorophenyl)cyclopropane-1,1-dicarboxamide], for which the results for the IC50 on Mer, on Met and against Human Axl were 10 to 100 nM, 100 to 1000 nM and 100 to 1000 nM, respectively.

In the case of `O=C(Nc1ccc(F)cc1)C1(C(=O)Nc2ccc(Oc3ncnc4cnccc34)cc2)CC1` [Compound 85, 1-N′-(4-fluorophenyl)-1-N-(4-pyrido[3,4-d]pyrimidin-4-yloxyphenyl)cyclopropane-1,1-dicarboxamide], the IC50 at Mer, at Met and at Human Axl was 100 to 1000 nM each time.

Regarding `O=C(Nc1ccc(F)cc1)C1(C(=O)Nc2ccc(Oc3ncnc4cnc(Cl)cc34)cc2)CC1` [Compound 88, 1-N-[4-(6-chloropyrido[3,4-d]pyrimidin-4-yl)oxy-phenyl]-1-N′-(4-fluoro-phenyl)cyclopropane-1,1-dicarboxamide], the half-maximal inhibitory concentration (IC50) against Mer was 100 to 1000 nM; at Met, over 1000 nM; on Human Axl, 100 to 1000 nM.

With `O=C(Nc1ccc(F)cc1)C1(C(=O)Nc2ccc(Oc3ncnc4ccncc34)cc2)CC1` [Compound 95, 1-N′-(4-fluorophenyl)-1-N-(4-pyrido[4,3-d]pyrimidin-4-yloxyphenyl)cyclo-propane-1,1-dicarboxamide], the IC50 against Mer, on Met and against Human Axl was 100 to 1000 nM each time.

Turning to `O=C(Nc1ccc(F)cc1)C1(C(=O)Nc2ccc(Oc3ncnc4cc(Cl)ncc34)cc2)CC1` [Compound 101, 1-N-[4-(7-chloropyrido[4,3-d]pyrimidin-4-yl)oxy-phenyl]-1-N′-(4-fluorophenyl)cyclo-propane-1,1-dicarboxamide], the concentration for half-maximal inhibition (IC50) at Mer, at Met and against Human Axl was 100 to 1000 nM in each case.
